Data reported in paper PMC7181131, “N-Pyrazinoyl Substituted Amino Acids as Potential Antimycobacterial Agents—the Synthesis and Biological Evaluation of Enantiomers” (Molecules, 2020).
In brackets after ≈: the same amount, converted by molar mass. Where two headings read alike, the source gives them in different places.

Experiments:
[1] = system: Mycobacterium tuberculosis H37Rv CNCTC My 331/88 (ATCC 27294); experiment: Antimycobacterial pre-screening, microdilution broth, Mtb H37Rv; type: cell-based; details: Middlebrook 7H9 broth of declared pH 6.6
[2] = system: Staphylococcus epidermidis CCM 4418 (ATCC 12228); experiment: Antibacterial microdilution broth method, SE; type: cell-based; details: 24 h, read-out: MIC SE
[3] = system: Lichtheimia corymbifera CCM 8077; experiment: Antifungal microdilution broth method, LC; type: cell-based; details: CCM8077, 48 h, read-out: MIC LC
[4] = system: Aspergillus fumigatus ATCC 204305; experiment: Antifungal microdilution broth method, AF; type: cell-based; details: ATCC204305, 48 h, read-out: MIC AF
[5] = system: Candida parapsilosis CCM 8260 (ATCC 22019); experiment: Antifungal microdilution broth method, CP; type: cell-based; details: Lodderomyces parapsilosis, 24 h, read-out: MIC CP
[6] = system: Mtb H37Ra ITM-M006710 (ATCC 9431); experiment: Microplate Alamar Blue Assay (MABA) microdilution, Mtb H37Ra; type: cell-based, Mycobacterium tuberculosis; details: Mycobacterium tuberculosis
[7] = system: Candida tropicalis CCM 8264 (ATCC 750); experiment: Antifungal microdilution broth method, CT; type: cell-based; details: 24 h, read-out: MIC CT
[8] = system: Klebsiella pneumoniae CCM 4415 (ATCC 10031); experiment: Antibacterial microdilution broth method, KP; details: read after 24 h of incubation
[9] = system: M. kansasii CNCTC My 235/80 (ATCC 12478); experiment: Antimycobacterial pre-screening, microdilution broth, M. kansasii; type: cell-based; details: Mycobacterium kansasii, ATCC12478; Middlebrook 7H9 broth of declared pH 6.6
[10] = system: M. avium ssp. avium CNCTC My 80/72 (ATCC 15769); experiment: Antimycobacterial pre-screening, microdilution broth, M. avium; type: cell-based; details: Mycobacterium avium, ATCC15769; Middlebrook 7H9 broth of declared pH 6.6
[11] = system: Trichophyton interdigitale CCM 8377 (ATCC 9533); experiment: Antifungal microdilution broth method, TI; type: cell-based; details: 48 h, read-out: MIC TI
[12] = system: Aspergillus flavus CCM 8363; experiment: Antifungal microdilution broth method, AFla; type: cell-based; details: CCM8363, read after 48 h (filamentous fungi), read-out: MIC AFla
Method: 6. In vitro antifungal activity screening
Antifungal activity evaluation was performed using a microdilution broth method according to EUCAST instructions (The European Committee on Antimicrobial Susceptibility Testing) with slight modifications. Eight fungal strains (four yeast and four mould strains) were used for antifungal […]
and Trichophyton interdigitale CCM 8377 (ATCC 9533). Tested strains were purchased from the Czech Collection of Microorganisms (CCM, Brno, Czech Republic) or from the American Type Collection Cultures (ATCC, Manassas, VA, USA). Tested compounds were dissolved in DMSO and diluted in a twofold manner with RPMI 1640 medium, with glutamine and 2% glucose, buffered to pH 7.0 with MOPS (3-morpholinopropane-1-sulfonic acid). The final concentration of DMSO in the testing […]
Static incubation was performed in the dark and in humid atmosphere, at 35±2 °C, for 24 and 48 h (72 and 120 h for Trichophyton interdigitale respectively). Positive controls consisted of test microbe solely, while negative controls consisted of cultivation medium and DMSO. Visual inspection and metabolic activity indicator, Alamar Blue (ThermoFisher Scientific), were used for MIC endpoint evaluation. The internal quality standards, amphotericin B (Sigma-Aldrich) and voriconazole (Toronto research Chemicals, CA) were involved in assays (for MIC of standards see Table S5). All experiments were conducted in duplicates.
For the results to be valid, the difference in MIC for one compound determined from two parallel measurements must not be greater than one step on the dilution scale.

[13] = system: Mycobacterium aurum DSM 43999 (ATCC 23366); experiment: Microplate Alamar Blue Assay (MABA) microdilution, M. aurum; type: cell-based
[14] = system: Candida krusei CCM 8271 (ATCC 6258); experiment: Antifungal microdilution broth method, CK; type: cell-based; details: Pichia kudriavzevii, 24 h, read-out: MIC CK
[15] = system: M. smegmatis DSM 43465 (ATCC 607); experiment: Microplate Alamar Blue Assay (MABA) microdilution, M. smegmatis; type: cell-based, Mycobacterium smegmatis
[16] = system: Candida albicans CCM 8320 (ATCC 24433); experiment: Antifungal microdilution broth method, CA; type: cell-based; details: 24 h, read-out: MIC CA
HepG2 cell line = experiment: HepG2 cytotoxicity, CellTiter 96 (MTS) assay; type: cell-based, human; details: Homo sapiens, read-out: HepG2 IC50
[17] = pH 6.6, read-out: MIC Mtb H37Ra
[18] = pH 6, calculated from µg/mL, read-out: MIC Mtb H37Ra
[19] = Mycolicibacterium aurum, pH 6, read-out: MIC M. aurum µg/mL
[20] = Mycolicibacterium aurum, pH 6.6, read-out: MIC M. aurum
[21] = Mycolicibacterium smegmatis, pH 6, read-out: MIC M. smegmatis µg/mL
[22] = Mycolicibacterium smegmatis, pH 6.6, read-out: MIC M. smegmatis
[23] = pH 6, Table 4, read-out: Mtb pH 6 MIC
[24] = HepG2, 24 h incubation, CellTiter 96

SMILES	MIC [2] [µM]	MIC [3] [µM]	MIC [4] [µM]	MIC [5] [µM]	MIC ([6]; pH 6) [µg/mL]	MIC ([6]; pH 6, read-out: MIC Mtb H37Ra) [µg/mL]	MIC [6, 17] [µg/mL]	MIC [6, 18] [µM]	MIC [7] [µM]	MIC KP [8] [µM]	MIC [11] [µM]	MIC [12] [µM]	MIC [13, 19] [µg/mL]	MIC [13, 20] [µg/mL]	MIC [14] [µM]	MIC [15, 21] [µg/mL]	MIC [15, 22] [µg/mL]	MIC [16] [µM]	MIC ([6]; pH 6, read-out: Mtb pH 6 MIC) [µM]	IC50 (HepG2 cell line; HepG2, 24 h) [µM]	further results
CCOC(=O)[C@H](Cc1ccccc1)NC(=O)c1cnccn1 (racemic) [PC-DL-Phe-Et, ethyl (pyrazine-2-carbonyl)phenylalaninate]	500 (≈ 150 µg/mL)	> 500	> 500	> 500	31.2	31.2	250	104	> 500	> 500	> 500	> 500	62.5 (≈ 209 µM)	≥ 500	> 500	≥ 125	250 (≈ 835 µM)	> 500			MIC [1]: > 100 µg/mL; MIC [9]: > 100 µg/mL; MIC [10]: > 100 µg/mL
NNC(=O)c1ccncc1 [INH, isoniazid, reference compound]						0.125 to 0.25	0.125 to 0.25	0.91 to 1.82													MIC [1]: 0.39 µg/mL (≈ 2.84 µM); MIC [9]: 25 µg/mL (≈ 182 µM); MIC [10]: 25 µg/mL (≈ 182 µM); MIC ([13]; Mycolicibacterium aurum, pH 6; read-out: MIC M. aurum): 3.91 to 7.81 µg/mL (≈ 28.5 to 56.9 µM); MIC ([13]; Mycolicibacterium aurum, pH 6.6; read-out: MIC M. aurum): 1.95 to 3.91 µg/mL (≈ 14.2 to 28.5 µM); MIC ([15]; Mycolicibacterium smegmatis, pH 6; read-out: MIC M. smegmatis): 7.81 to 15.6 µg/mL (≈ 56.9 to 114 µM); MIC ([15]; Mycolicibacterium smegmatis, pH 6.6; read-out: MIC M. smegmatis): 7.81 to 15.6 µg/mL (≈ 56.9 to 114 µM)
COC(=O)C(NC(=O)c1cnccn1)c1ccccc1 [PC-D/L-Pgl-Me, methyl 2-phenyL-2-(pyrazine-2-carboxamido)acetate]	> 500	> 500	> 500	> 500	< 1.95	< 1.95	≥ 500	< 7.3	500 (≈ 136 µg/mL)	> 500	> 500	> 500	31.2 (≈ 115 µM)	≥ 500	> 500	≥ 250	≥ 500	> 500	< 7	> 1000	
C[C@H](NC(=O)c1cnccn1)C(=O)O [PC-L-Ala, (pyrazine-2-carbonyl)-L-alanine]	> 500	> 500	> 500	> 500	≥ 250	≥ 250	≥ 250	≥ 1280	> 500	> 500	> 500	> 500	62.5 (≈ 320 µM)	≥ 250	> 500	125 (≈ 640 µM)	≥ 250	> 500			MIC [6, 23]: ≥ 1280 µM; IC50 (HepG2 cell line; [24]): > 250 µM
COC(=O)[C@H](CCSC)NC(=O)c1cnccn1 [PC-L-Met-Me, methyl (pyrazine-2-carbonyl)-L-methioninate]	> 500	> 500	> 500	> 500	< 3.91	< 3.91	≥ 500	< 14.5	> 500	> 500	500 (≈ 135 µg/mL)	> 500	62.5 (≈ 232 µM)	≥ 500	> 500	≥ 500	≥ 500	> 500	15	> 100	
COC(=O)[C@H](COCc1ccccc1)NC(=O)c1cnccn1 [PC-L-OBn-Ser-Me, methyl O-benzyl-N-(pyrazine-2-carbonyl)-L-serinate]	> 250	> 250	> 250	> 250	7.81	7.81	250	24.8	125 (≈ 39.4 µg/mL)		> 250	> 250	62.5 (≈ 198 µM)	≥ 500	> 250	≥ 500	≥ 500	> 250	25	742	
COC(=O)[C@@H](NC(=O)c1cnccn1)[C@@H](C)OC(C)(C)C [PC-L-OtBu-Thr-Me, methyl O-(tert-butyl)-N-(pyrazine-2-carbonyl)-L-threoninate]	62.5 (≈ 18.5 µg/mL)	> 500	> 500	> 500	≥ 500	≥ 500	≥ 500	≥ 1690	> 500	> 500	> 500	> 500	≥ 500	≥ 500	> 500	≥ 500	≥ 500	> 500	1690	> 500	
COC(=O)[C@@H](NC(=O)c1cnccn1)[C@@H](C)O [PC-L-Thr-Me, methyl (pyrazine-2-carbonyl)-L-threoninate]	> 500	> 500	> 500	> 500	≥ 500	≥ 500	≥ 500	≥ 2090	> 500	> 500	500 (≈ 120 µg/mL)	> 500	≥ 500	≥ 500	> 500	≥ 500	≥ 500	> 500			
CCOC(=O)[C@H](Cc1c[nH]c2ccccc12)NC(=O)c1cnccn1 [PC-L-Trp-Et, ethyl (pyrazine-2-carbonyl)-L-tryptophanate]	> 500	> 500	> 500	> 500	125	125	125	369	> 500	> 500	> 500	> 500	62.5 (≈ 185 µM)	125 (≈ 369 µM)	> 500	250 (≈ 739 µM)	250 (≈ 739 µM)	> 500	125	147	
CCOC(=O)[C@H](Cc1ccc(O)cc1)NC(=O)c1cnccn1 [PC-L-Tyr-Et, ethyl (pyrazine-2-carbonyl)-L-tyrosinate]	> 500	> 500	> 500	> 500	7.81	7.81	500	24.8	> 500	> 500	> 500	> 500	≥ 250	≥ 500	> 500	≥ 250	≥ 500	> 500			MIC [6, 23]: 25 µM; IC50 (HepG2 cell line; [24]): 177 µM
COC(=O)[C@@H](NC(=O)c1cnccn1)C(C)C [PC-L-Val-Me, methyl (pyrazine-2-carbonyl)-L-valinate]	> 500	> 500	> 500	> 500	≥ 125	≥ 125	≥ 500	≥ 527	> 500	> 500	> 500	> 500	≥ 125	≥ 500	> 500	≥ 125	250 (≈ 1050 µM)	> 500			
